Assay [1] deals with Bile salt export pump (Homo sapiens, UniProt O95342). The format is functional.
The target in assay [2] is 5-hydroxytryptamine receptor 2B (Homo sapiens, UniProt P41595). The assay is classed as functional, cell-based.
For assay [3], the target named is T1, Alpha-2A adrenergic receptor (Homo sapiens, UniProt P08913).
T1 sequence (P08913 whole entry): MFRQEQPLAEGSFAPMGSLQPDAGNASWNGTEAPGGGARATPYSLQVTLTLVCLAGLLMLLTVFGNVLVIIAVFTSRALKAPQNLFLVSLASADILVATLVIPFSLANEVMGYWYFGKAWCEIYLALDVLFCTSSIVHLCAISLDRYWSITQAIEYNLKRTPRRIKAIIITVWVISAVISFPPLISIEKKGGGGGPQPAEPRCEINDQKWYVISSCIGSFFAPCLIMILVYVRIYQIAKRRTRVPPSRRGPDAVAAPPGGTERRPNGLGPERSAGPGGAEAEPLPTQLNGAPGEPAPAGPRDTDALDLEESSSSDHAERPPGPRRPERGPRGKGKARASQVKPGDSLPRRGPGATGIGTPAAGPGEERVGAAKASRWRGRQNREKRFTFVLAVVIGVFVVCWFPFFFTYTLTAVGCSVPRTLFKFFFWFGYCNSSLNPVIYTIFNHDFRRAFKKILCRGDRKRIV

The target in assay [4] is Sodium-dependent noradrenaline transporter (Homo sapiens, UniProt P23975).
Assay [5] deals with D(1A) dopamine receptor (Homo sapiens, UniProt P21728).
Assay [6] addresses T2, Amine oxidase [flavin-containing] A (Homo sapiens, UniProt P21397).
T2 sequence (P21397 whole entry): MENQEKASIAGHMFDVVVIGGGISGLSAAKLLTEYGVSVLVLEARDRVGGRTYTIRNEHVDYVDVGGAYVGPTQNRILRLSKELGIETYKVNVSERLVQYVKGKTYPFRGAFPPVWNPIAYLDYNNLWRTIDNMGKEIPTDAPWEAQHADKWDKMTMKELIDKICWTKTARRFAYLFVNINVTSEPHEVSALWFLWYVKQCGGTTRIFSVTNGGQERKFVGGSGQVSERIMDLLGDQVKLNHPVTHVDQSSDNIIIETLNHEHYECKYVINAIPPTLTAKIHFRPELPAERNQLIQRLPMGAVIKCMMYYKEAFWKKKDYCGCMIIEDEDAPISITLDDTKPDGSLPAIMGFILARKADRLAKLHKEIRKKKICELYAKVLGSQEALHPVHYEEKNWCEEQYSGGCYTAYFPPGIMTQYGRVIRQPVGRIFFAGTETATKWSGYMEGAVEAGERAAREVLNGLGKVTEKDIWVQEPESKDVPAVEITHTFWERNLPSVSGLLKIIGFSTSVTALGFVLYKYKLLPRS
The assay is classed as functional.

The target of assay [7] is 3',5'-cyclic-AMP phosphodiesterase 4A (Homo sapiens, UniProt P27815). The format is functional.
Assay [8] addresses Mu-type opioid receptor (Homo sapiens, UniProt P35372).
Assay [9] deals with Prostaglandin G/H synthase 1 (Homo sapiens, UniProt P23219). The assay is classed as functional.
Assay [10] deals with T3, Muscarinic acetylcholine receptor M2 (Homo sapiens, UniProt P08172).
T3 sequence (P08172 whole entry): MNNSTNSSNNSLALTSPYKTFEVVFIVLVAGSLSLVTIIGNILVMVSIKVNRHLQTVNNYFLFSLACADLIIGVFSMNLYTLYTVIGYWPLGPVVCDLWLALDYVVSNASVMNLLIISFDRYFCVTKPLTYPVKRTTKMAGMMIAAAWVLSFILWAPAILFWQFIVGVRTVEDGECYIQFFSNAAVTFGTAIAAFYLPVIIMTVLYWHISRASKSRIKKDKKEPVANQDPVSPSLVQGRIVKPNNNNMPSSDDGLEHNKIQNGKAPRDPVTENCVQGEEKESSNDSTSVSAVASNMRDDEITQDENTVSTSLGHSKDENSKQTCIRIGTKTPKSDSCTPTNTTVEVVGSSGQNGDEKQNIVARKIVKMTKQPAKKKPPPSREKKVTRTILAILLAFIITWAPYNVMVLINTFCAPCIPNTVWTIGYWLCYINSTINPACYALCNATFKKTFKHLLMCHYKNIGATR

For assay [11], the target named is T4, Thromboxane A2 receptor (Homo sapiens, UniProt P21731).
T4 sequence (P21731 whole entry): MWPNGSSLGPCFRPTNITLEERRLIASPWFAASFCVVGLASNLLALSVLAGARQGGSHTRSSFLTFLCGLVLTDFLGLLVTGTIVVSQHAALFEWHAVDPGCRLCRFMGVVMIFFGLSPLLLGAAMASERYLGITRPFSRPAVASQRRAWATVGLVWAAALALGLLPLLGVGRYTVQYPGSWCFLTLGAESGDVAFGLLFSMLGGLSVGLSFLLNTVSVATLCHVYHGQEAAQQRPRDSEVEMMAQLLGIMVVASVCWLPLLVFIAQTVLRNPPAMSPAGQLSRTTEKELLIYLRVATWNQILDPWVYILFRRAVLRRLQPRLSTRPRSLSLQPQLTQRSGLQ
The assay is classed as functional, cell-based.

Where only a bound is given, the exact number is not on record here.
Also: assay procedure not described here.

Chain of Sodium-dependent noradrenaline transporter (P23975 whole entry): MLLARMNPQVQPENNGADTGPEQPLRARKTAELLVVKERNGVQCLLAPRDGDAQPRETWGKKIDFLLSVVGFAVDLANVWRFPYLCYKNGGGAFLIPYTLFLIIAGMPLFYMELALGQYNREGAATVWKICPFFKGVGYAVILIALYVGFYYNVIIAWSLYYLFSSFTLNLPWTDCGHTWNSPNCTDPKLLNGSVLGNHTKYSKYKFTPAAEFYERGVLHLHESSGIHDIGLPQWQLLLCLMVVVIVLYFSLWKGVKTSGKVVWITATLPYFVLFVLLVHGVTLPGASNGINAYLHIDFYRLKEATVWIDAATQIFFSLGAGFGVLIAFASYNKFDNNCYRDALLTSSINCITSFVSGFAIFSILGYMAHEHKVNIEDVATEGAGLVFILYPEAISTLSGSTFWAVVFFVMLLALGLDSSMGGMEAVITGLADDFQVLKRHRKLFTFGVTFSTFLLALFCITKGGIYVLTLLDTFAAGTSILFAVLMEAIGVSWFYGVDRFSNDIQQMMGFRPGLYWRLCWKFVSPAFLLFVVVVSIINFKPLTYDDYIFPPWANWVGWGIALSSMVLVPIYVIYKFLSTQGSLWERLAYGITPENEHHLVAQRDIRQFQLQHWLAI
Chain of D(1A) dopamine receptor (P21728 whole entry): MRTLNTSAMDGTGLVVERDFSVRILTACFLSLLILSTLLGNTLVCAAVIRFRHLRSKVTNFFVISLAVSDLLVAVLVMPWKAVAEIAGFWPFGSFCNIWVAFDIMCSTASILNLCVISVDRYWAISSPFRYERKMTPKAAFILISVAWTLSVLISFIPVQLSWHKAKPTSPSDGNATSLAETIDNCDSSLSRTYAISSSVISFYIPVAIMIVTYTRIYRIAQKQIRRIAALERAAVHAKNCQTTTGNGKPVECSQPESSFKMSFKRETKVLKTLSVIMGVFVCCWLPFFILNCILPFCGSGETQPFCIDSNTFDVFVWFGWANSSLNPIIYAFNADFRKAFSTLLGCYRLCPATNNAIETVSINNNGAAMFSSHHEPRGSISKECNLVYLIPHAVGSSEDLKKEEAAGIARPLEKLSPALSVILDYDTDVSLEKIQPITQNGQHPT
Chain of Mu-type opioid receptor (P35372 whole entry): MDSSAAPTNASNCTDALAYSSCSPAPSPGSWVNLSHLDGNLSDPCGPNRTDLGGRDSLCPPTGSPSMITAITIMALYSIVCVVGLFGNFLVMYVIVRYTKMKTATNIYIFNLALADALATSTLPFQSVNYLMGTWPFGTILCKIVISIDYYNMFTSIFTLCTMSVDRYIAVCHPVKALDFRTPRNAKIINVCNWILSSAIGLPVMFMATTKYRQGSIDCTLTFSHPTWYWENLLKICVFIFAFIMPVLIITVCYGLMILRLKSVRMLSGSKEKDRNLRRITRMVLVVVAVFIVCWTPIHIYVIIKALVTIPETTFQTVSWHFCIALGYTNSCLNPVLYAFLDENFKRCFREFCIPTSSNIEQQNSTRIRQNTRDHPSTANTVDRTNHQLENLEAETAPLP
Chain of Prostaglandin G/H synthase 1 (P23219 whole entry): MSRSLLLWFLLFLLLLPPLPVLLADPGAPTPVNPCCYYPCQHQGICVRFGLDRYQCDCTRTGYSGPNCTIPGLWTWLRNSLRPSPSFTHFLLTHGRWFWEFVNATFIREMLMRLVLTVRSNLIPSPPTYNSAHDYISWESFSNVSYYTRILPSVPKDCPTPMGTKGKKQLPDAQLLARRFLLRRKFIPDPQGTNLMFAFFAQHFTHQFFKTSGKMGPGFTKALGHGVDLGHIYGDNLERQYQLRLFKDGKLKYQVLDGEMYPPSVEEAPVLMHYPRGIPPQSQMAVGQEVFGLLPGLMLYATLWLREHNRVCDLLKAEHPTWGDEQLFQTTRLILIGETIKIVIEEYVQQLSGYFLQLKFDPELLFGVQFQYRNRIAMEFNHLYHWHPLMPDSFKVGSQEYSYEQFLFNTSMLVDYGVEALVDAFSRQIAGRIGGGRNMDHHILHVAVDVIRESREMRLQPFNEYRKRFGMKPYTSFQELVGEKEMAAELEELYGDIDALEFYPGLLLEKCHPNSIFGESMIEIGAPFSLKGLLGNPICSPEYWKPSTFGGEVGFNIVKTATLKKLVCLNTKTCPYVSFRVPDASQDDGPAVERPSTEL
Chain of Bile salt export pump (O95342 whole entry): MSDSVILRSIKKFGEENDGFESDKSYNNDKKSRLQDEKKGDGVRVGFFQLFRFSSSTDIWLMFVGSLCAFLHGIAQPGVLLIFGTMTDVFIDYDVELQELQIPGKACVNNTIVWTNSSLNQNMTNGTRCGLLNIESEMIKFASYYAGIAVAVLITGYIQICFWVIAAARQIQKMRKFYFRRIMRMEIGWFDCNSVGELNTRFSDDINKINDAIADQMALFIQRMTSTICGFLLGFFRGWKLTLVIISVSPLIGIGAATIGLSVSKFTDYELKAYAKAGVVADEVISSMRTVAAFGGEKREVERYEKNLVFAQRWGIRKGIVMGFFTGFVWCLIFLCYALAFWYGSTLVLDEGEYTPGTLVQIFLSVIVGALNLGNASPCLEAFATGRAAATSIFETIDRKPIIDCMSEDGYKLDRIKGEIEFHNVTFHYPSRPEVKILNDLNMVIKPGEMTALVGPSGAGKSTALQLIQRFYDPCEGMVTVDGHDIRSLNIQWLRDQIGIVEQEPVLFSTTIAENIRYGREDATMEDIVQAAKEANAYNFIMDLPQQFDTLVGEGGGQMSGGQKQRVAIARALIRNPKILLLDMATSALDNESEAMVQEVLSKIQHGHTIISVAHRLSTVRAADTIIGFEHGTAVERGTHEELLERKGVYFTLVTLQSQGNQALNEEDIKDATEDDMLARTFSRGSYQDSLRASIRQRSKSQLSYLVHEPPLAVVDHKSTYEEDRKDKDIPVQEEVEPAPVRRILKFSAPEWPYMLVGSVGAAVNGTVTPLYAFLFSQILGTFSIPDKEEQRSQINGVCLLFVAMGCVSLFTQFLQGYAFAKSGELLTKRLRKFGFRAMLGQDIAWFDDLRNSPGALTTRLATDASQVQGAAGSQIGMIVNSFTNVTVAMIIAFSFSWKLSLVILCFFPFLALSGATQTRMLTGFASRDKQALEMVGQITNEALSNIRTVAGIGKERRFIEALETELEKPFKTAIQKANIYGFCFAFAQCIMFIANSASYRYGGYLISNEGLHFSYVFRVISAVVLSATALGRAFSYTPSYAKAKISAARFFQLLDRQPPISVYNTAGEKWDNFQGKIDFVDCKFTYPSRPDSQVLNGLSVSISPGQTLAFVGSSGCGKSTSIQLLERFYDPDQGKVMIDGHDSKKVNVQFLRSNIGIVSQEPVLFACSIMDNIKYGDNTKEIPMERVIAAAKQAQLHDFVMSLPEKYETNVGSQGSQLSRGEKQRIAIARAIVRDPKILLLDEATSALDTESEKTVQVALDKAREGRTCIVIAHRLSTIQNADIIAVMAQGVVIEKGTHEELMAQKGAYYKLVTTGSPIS
Chain of 5-hydroxytryptamine receptor 2B (P41595 whole entry): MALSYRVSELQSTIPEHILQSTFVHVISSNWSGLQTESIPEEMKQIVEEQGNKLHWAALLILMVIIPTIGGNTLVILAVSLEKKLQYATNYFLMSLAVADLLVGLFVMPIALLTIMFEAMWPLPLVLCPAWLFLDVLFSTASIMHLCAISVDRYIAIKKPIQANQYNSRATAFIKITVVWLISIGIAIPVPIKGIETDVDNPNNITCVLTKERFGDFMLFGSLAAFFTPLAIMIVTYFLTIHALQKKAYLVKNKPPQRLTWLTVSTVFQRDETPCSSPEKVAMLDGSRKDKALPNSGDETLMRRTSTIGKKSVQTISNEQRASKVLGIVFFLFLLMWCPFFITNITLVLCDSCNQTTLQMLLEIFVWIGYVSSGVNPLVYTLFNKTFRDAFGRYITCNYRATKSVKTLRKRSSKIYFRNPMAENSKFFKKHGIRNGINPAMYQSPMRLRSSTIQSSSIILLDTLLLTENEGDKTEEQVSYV
Chain of 3',5'-cyclic-AMP phosphodiesterase 4A (P27815 whole entry): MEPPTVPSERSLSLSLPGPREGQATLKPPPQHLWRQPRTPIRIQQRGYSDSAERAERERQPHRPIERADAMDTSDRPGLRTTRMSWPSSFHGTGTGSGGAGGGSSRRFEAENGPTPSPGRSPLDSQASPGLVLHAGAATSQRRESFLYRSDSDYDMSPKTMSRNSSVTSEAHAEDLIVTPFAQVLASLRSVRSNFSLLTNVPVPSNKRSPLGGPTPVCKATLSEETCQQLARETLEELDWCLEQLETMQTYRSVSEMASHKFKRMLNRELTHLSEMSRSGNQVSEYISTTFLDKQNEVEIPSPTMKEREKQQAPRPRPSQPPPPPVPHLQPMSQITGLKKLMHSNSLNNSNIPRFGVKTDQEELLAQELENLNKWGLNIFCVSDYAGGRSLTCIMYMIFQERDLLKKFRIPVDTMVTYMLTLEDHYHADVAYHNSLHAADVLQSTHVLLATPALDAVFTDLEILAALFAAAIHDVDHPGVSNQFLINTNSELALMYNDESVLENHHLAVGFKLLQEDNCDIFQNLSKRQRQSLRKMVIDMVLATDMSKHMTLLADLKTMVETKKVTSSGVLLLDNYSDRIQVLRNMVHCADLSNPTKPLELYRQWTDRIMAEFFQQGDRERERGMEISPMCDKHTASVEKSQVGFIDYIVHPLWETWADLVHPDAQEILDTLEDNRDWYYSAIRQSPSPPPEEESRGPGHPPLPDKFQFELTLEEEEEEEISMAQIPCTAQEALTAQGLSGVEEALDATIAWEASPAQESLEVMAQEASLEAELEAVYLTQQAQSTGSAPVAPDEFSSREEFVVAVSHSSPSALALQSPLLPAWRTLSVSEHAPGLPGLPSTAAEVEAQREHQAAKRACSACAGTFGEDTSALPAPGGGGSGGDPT

A word on the AC50: it is the concentration giving half of the maximal activity seen. As to `OC[C@H]1O[C@@H](c2ccc(Cl)c(Cc3ccc(O[C@H]4CCOC4)cc3)c2)[C@H](O)[C@@H](O)[C@@H]1O` [EMPAGLIFLOZIN], the AC50 in assay [1] is more than 300 µM; in assay [2] it was more than 30 µM; in assay [3], more than 30 µM; in [4], more than 30 µM; in [5], more than 30 µM; in assay [6], more than 30 µM. For the same compound, the AC50 in assay [7], in [8], in assay [9], in assay [10] and in assay [11] was more than 30 µM each time.
For the compound `COc1cc2nccc(Oc3ccc(NC(=O)C4(C(=O)Nc5ccc(F)cc5)CC4)cc3)c2cc1OC` [CABOZANTINIB], the AC50 in assay [1] was 8.8 µM; in [2], more than 30 µM; in assay [3], more than 30 µM; in assay [4] it was more than 30 µM; in [5], 4.42 µM; in [6] it was 25.4 µM. Moreover, the AC50 in [7] was more than 30 µM; in assay [8] it was more than 30 µM; in assay [9], more than 30 µM; in assay [10], 9.32 µM; in [11] it was 17.5 µM.
Consider `C[N+](C)(C)C[C@H](O)CC(=O)[O-]` [LEVOCARNITINE], for which the AC50 in assay [1] is more than 300 µM; in assay [2], more than 30 µM; in [3], more than 30 µM; in assay [4], more than 30 µM; in assay [5], more than 30 µM; in assay [6] it was more than 30 µM. In addition, the AC50 in assay [7], in [8], in assay [9], in assay [10] and in [11] was more than 30 µM each time.
`CCOC(=O)C1=C[C@@H](OC(CC)CC)[C@H](NC(C)=O)[C@@H](N)C1` [OSELTAMIVIR]: the AC50 is more than 300 µM in [1]; more than 30 µM in [2]; more than 30 µM in [3]; more than 30 µM in [4]; more than 30 µM in assay [5]; more than 30 µM in [6]. Moreover, the AC50 in assay [7], in [8], in assay [9], in [10] and in assay [11] was more than 30 µM each time.
Take `Cc1onc(-c2ccccc2)c1C(=O)N[C@@H]1C(=O)N2[C@@H]1SC(C)(C)[C@@H]2C(=O)O` [OXACILLIN]: the AC50 was 220 µM in assay [1]; more than 30 µM in assay [2]; more than 30 µM in assay [3]; more than 30 µM in assay [4]; more than 30 µM in assay [5]; more than 30 µM in assay [6]. For the same compound, the AC50 in assay [7], in assay [8], in assay [9], in assay [10] and in [11] was more than 30 µM throughout.
Regarding `O=C(O)c1cc(/N=N/c2ccc(O)c(C(=O)O)c2)ccc1O` [OLSALAZINE], the AC50 was more than 300 µM in assay [1]; more than 30 µM in assay [2]; more than 30 µM in assay [3]; more than 30 µM in assay [4]; more than 30 µM in assay [5]; more than 30 µM in assay [6]. The AC50 was 13.2 µM in assay [7]; more than 30 µM in assay [8]; more than 30 µM in assay [9]; more than 30 µM in assay [10]; more than 30 µM in assay [11].
On to `CC(C)C[C@H](NC(=O)CNC(=O)c1cc(Cl)ccc1Cl)B(O)O` [IXAZOMIB], for which the AC50 in assay [1] is more than 300 µM; in [2], more than 30 µM; in assay [3] it was more than 30 µM; in [4] it was more than 30 µM; in [5] it was more than 30 µM; in assay [6], more than 30 µM. Also, the AC50 in assay [7] is 29.9 µM; in assay [8], more than 30 µM; in assay [9], more than 30 µM; in assay [10], more than 30 µM; in [11], more than 30 µM.
As to `CCCN(CCC)C(=O)Cc1c(-c2ccc(Cl)cc2)nc2ccc(Cl)cn12` [ALPIDEM], the AC50 in assay [1] was 4.8 µM; in assay [2], more than 30 µM; in assay [3], more than 30 µM; in [4], more than 30 µM; in assay [5] it was more than 30 µM; in [6], more than 30 µM. Besides, the AC50 in assay [7] was more than 30 µM; in assay [8] it was 15.5 µM; in assay [9] it was more than 30 µM; in assay [10], more than 30 µM; in assay [11] it was more than 10 µM.
Take `CCCC(CCC)C(=O)O` [VALPROIC ACID]: the AC50 is more than 300 µM in [1]; more than 30 µM in assay [2]; more than 30 µM in assay [3]; more than 30 µM in assay [4]; more than 30 µM in assay [5]; more than 30 µM in [6]. Further, the AC50 in assay [7], in assay [8], in assay [9], in assay [10] and in [11] was more than 30 µM in each case.
Regarding `CC(C)(O)CNc1nc(Nc2ccnc(C(F)(F)F)c2)nc(-c2cccc(C(F)(F)F)n2)n1` [ENASIDENIB], the AC50 in assay [1] was 5.3 µM; in [2], more than 30 µM; in assay [3], more than 30 µM; in assay [4] it was more than 30 µM; in assay [5], more than 30 µM; in assay [6], more than 30 µM. Further, the AC50 in [7] is more than 30 µM; in assay [8] it was 21.5 µM; in assay [9], 9.18 µM; in [10], more than 30 µM; in assay [11] it was 7.09 µM.
Regarding `O=C(O)COc1ccc(C(=O)c2cccs2)c(Cl)c1Cl`, the AC50 is more than 300 µM in assay [1]; more than 30 µM in [2]; more than 30 µM in assay [3]; more than 30 µM in assay [4]; more than 30 µM in [5]; more than 30 µM in assay [6]. Moreover, the AC50 in [7], in assay [8], in assay [9], in [10] and in [11] was more than 30 µM in each case.
For `C[C@@H]1C[C@H]2[C@@H]3CCC4=CC(=O)C=C[C@]4(C)[C@@]3(Cl)[C@@H](O)C[C@]2(C)[C@@]1(OC(=O)c1ccco1)C(=O)CCl` [MOMETASONE FUROATE], the AC50 in assay [1] is 2.4 µM; in assay [2], more than 30 µM; in assay [3] it was more than 30 µM; in assay [4], more than 30 µM; in assay [5] it was more than 30 µM; in assay [6], more than 30 µM. Also, the AC50 was more than 30 µM in assay [7]; more than 30 µM in [8]; 13.7 µM in [9]; more than 30 µM in assay [10]; more than 30 µM in assay [11].
Consider `CN1C(C(=O)Nc2ccccn2)=C(O)c2ccccc2S1(=O)=O` [PIROXICAM], for which the AC50 was 200 µM in assay [1]; more than 30 µM in [2]; more than 30 µM in assay [3]; more than 30 µM in assay [4]; more than 30 µM in [5]; more than 30 µM in [6]. In addition, the AC50 in [7], in [8], in [10] and in assay [11] was more than 30 µM in each case.

These data come from ChEMBL document CHEMBL5291721, “A preclinical secondary pharmacology resource illuminates target-adverse drug reaction associations of marketed drugs” (Nat Commun, 2023).
